# Target: T1, M. tuberculosis gyrase (MTB DNA gyrase) (Mycobacterium tuberculosis, UniProt P9WG45+P9WG47)
# T1 construct: gene gyrA
# Experiment: DNA supercoiling inhibition, relaxed pBR322, agarose gel
# Type: biochemical
# Conditions: not given
# T1 sequence (P9WG47 2-838): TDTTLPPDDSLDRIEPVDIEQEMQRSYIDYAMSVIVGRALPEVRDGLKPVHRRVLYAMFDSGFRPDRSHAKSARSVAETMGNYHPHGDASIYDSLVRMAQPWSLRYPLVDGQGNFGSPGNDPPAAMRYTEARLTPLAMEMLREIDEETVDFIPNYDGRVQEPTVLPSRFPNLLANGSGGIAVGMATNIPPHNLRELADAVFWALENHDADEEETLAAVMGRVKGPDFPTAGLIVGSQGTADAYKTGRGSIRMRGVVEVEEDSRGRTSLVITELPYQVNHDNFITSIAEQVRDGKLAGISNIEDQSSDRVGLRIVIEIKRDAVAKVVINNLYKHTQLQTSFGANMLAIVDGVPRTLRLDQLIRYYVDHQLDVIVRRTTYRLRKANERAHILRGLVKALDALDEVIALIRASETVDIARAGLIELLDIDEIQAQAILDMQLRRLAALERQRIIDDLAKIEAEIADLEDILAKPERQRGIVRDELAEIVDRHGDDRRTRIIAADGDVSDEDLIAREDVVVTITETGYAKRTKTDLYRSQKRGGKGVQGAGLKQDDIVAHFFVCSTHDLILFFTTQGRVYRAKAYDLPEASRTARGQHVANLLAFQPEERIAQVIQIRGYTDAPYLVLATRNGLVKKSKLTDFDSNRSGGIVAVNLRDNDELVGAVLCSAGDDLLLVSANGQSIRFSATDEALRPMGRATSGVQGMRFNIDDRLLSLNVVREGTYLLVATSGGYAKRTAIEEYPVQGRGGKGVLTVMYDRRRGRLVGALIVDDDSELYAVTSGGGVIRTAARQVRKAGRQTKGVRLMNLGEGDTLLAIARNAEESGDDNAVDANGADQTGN
# T1 sequence (P9WG45 whole entry): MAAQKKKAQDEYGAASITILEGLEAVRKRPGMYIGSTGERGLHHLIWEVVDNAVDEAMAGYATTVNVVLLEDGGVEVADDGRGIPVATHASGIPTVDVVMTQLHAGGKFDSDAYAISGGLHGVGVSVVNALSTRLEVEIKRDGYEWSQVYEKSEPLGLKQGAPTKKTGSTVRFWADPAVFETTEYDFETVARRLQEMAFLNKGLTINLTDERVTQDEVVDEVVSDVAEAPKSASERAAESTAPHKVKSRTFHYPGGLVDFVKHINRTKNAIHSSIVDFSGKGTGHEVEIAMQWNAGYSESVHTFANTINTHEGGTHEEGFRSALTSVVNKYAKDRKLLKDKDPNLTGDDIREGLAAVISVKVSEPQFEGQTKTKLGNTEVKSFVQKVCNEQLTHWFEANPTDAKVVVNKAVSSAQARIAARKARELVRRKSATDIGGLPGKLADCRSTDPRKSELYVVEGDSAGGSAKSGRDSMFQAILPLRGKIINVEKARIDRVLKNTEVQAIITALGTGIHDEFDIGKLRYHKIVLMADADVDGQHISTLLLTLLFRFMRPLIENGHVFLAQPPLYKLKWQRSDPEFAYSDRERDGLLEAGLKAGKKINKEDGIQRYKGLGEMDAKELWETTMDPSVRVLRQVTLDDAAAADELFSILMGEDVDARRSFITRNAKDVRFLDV
row,Compound,EC50 [µM]
1,C[C@H]1COc2c(N3CCN(C)CC3)c(F)cc3c(=O)c(C(=O)O)cn1c23 [Levofloxacin],10
2,COc1c(N2CCNC(C)C2)c(F)cc2c(=O)c(C(=O)O)cn(C3CC3)c12 (stereo not drawn) [Gatifloxacin],5
3,Nc1nc(-n2cc(C(=O)O)c(=O)c3cc(F)c(N4CC(O)C4)c(Cl)c32)c(F)cc1F [Delafloxacin],23
4,CCNC(=O)Nc1nc2cc(-c3cnc(C(C)(C)O)nc3)c(F)c([C@H]3CCCO3)c2[nH]1 [SPR719],0.3
5,N[C@@H]1CN(c2c(F)cc3c(=O)c(C(=O)O)cn([C@@H]4C[C@@H]4F)c3c2Cl)CC12CC2 [Sitafloxacin],1

# Same assay, conditions: 37 °C, 30 min, relaxed pBR322
row,Compound,EC50 [µM]
1,EC/11716,0.1

# Reference: publication PMC11474946, “Role of DNA Double-Strand Break Formation in Gyrase Inhibitor-Mediated Killing of Nonreplicating Persistent Mycobacterium tuberculosis in Caseum” (ACS Infectious Diseases, 2024)
